Assay results taken from patent US4902699A, “Oxime of 1, 2, 5, 6-tetrahydropyridine compounds their use as medicaments and the compositions containing them” (Roussel Uclaf, priority 1987, dated 1990).
Where a name gives a salt, the structure may show the parent alone. Read-outs that look alike come from different tables or passages of the source. Blank lines part the entries; values can stand above or below the molecule they belong to.

How the values were obtained:
[1] = tested on: male mice (CD1 Charles RAivers); test: Hypothermic activity; format: in vivo; details: Mus musculus, read-out: Effective dose (-1° C.)
Protocol: (§1) The test is carried out on male mice (CD1 Charles RAivers) weighing 25-30 g, having fasted for 6 hours.
The temperature of the body is noted by means of a thermocouple inserted about 1.5 cm in the rectum and connected to an electric temperature recorder.
The products are administered by oral or sub-cutaneous route and the temperatures are noted at the instant 0 and at 30 minutes, 1 hour, 2 hours and 2 and a half hours after treatment.
The degree of hypothermia is evaluated as the difference between the treated animals and the controls, and the dose necessary to reduce the body temperature by 1° C. is noted.

[2] = tested on: male mice (CD1 Charles RAivers); test: Variation of the body temperature (duration of action); format: in vivo
Protocol: as §1
The temperature of the body is noted by means of a thermocouple inserted about 1.5 cm in the rectum and connected to an electric temperature recorder. […]
The duration of action of the products is determined, using the doses able to reduce the temperature by 1° to 1.5° C.

[3] = Acute toxicity, oral; set-up: species or system mice; details: mouse, in vivo, mortality during 7 days
Protocol: The test was carried out on male mice (CD1 Charles Rivers), of 22 to 24 g, having fasted for 16 hours. […] The mortality is noted during the 7 days following the treatment.

[4] = tested on: ileum isolated from guinea-pig; test: Test of ileum isolated from guinea-pig, agonist (contracting) activity; details: Cavia porcellus; negative logarithm of the dose which produces 50% of the maximum effect; read-out: pD2 (converted)
Protocol: Pieces of ileum are removed from guinea-pigs killed by decapitation. The isolated ileum is placed in 10 cm^3 of Tyrode solution at 37° C. and aerated with a mixture of oxygen (95%) and carbon dioxide gas (5%). The contractions due to the products are registered by means of a detector connected to a polygraph. The products to be tested are added at concentrations between 1.10^-3 M and 1.10^-8 M/l.
The products presenting a contracting effect are tested vis-a-vis atropine and hexamethonium in order to establish if the activity is of "muscarine" or "nicotine" type.
The agonist activity is expressed in pD2 (negative logarithm of the dose which produces 50% of the maximum effect).

[5] = Diarrhoeic activity; set-up: species or system mice; details: mouse, in vivo; oral route; dose which causes diarrhoea in 50% of the animals; read-out: DE50 (the source's name)
Protocol: The test is carried out on male mice (CD1 Charles Rivers) weighing […], after fasting for 6 hours. The product dissolved at 5% in methocel is administered by oral route by means of an oesophage probe.
Control animals receive only the excipient.
After treatment, the animals are placed separately in cages of which the base is covered with blotting paper, and they are put under observation for 30, 60, 120 and 180 minutes.
The sheets of absorbent paper are changed after each observation.
The consistency of the feces is evaluated according to the method of Randall and Baruth (Arch. Int. Pharmacodyn. 220, 94, 1976) according to the following scale of values.
1: feces slightly soft, with or without a damp halo
2: feces slightly soft, with a well defined circle of humidity.
3: feces soft with a large circle of humidity.
4: feces without consistency with a very large circle of humidity.
For each product, the dose is noted which causes diarrhoea in 50% of the animals according to the method of Miller and Tainter (Proc. Soc. Exp. Biol. Med., 57, 261, 1944).

[6] = Solubility; format: physicochemical

SMILES: COC(=O)C1=CCCN(C)C1 [Arecoline HBr, reference compound]
ED (-1 C) ([1]; O.R. (oral route)): 194 mg/kg
ED (-1 C) ([1]; SC.R (sub-cutaneous route)): 3 mg/kg
Variations of the body temperature ([2]; os, 200 mg/kg, 30 min): -1.1 °C
Variations of the body temperature ([2]; os, 200 mg/kg, 60 min): -1.0 °C
Variations of the body temperature ([2]; os, 200 mg/kg, 120 min): -0.2 °C
Variations of the body temperature ([2]; os, 200 mg/kg, 180 min): -0.1 °C
Variations of the body temperature ([2]; sc, 3.5 mg/kg, 30 min): -1.5 °C
Variations of the body temperature ([2]; sc, 3.5 mg/kg, 60 min): -0.1 °C
Variations of the body temperature ([2]; sc, 3.5 mg/kg, 120 min): +0.2 °C
Variations of the body temperature ([2]; sc, 3.5 mg/kg, 180 min): +0.2 °C

SMILES: CON=CC1=CCCN(OC(=O)Nc2ccccc2)C1 [Example 13, Methyl ether of 1-phenylaminocarbonyloxy 1,2,5,6-tetrahydropyridin-3-carboxaldehyde oxime]
LD50 at 168 h [3]: 250 mg/kg
EC50 [4]: > 100 µM
ED50 [5]: 5 mg/kg
ED (-1 C) ([1]; O.R. (oral route)): 0.74 mg/kg
ED (-1 C) ([1]; SC.R (sub-cutaneous route)): 0.43 mg/kg
Variations of the body temperature ([2]; os, 1. mg/kg, 30 min): -1.4 °C
Variations of the body temperature ([2]; os, 1. mg/kg, 60 min): -1.1 °C
Variations of the body temperature ([2]; os, 1. mg/kg, 120 min): -0.1 °C
Variations of the body temperature ([2]; os, 1. mg/kg, 180 min): +0. °C.
Variations of the body temperature ([2]; sc, 0.5 mg/kg, 30 min): -1.2 °C
Variations of the body temperature ([2]; sc, 0.5 mg/kg, 60 min): -1.2 °C
Variations of the body temperature ([2]; sc, 0.5 mg/kg, 120 min): -0.1 °C

SMILES: CCCNC(=O)ON1CCC=C(C=NOC)C1 [Example 10, Methyl ether of 1-propyl aminocarbonyloxy-1,2,5,6-tetrahydropyridin-3-carboxyaldehyde oxime]
LD50 at 168 h [3]: 125 mg/kg
EC50 [4]: > 100 µM
ED50 [5]: 20 mg/kg
ED (-1 C) ([1]; O.R. (oral route)): 1.4 mg/kg
ED (-1 C) ([1]; SC.R (sub-cutaneous route)): 1.3 mg/kg
Variations of the body temperature ([2]; os, 1.56 mg/kg, 30 min): -1.2 °C
Variations of the body temperature ([2]; os, 1.56 mg/kg, 60 min): -1.0 °C
Variations of the body temperature ([2]; os, 1.56 mg/kg, 120 min): -0.1 °C
Variations of the body temperature ([2]; os, 1.56 mg/kg, 180 min): +0.1 °C
Variations of the body temperature ([2]; sc, 1.56 mg/kg, 30 min): -1.2 °C
Variations of the body temperature ([2]; sc, 1.56 mg/kg, 60 min): -1.1 °C
Variations of the body temperature ([2]; sc, 1.56 mg/kg, 180 min): +0.1 °C

SMILES: CON=CC1=CCCN(O)C1 [Example 1, Hydrochloride of the methyl ether of 1-hydroxy-1,2,5,6-tetrahydropyridin-3-carboxaldehyde oxime]
LD50 at 168 h [3]: 60 mg/kg
EC50 [4]: 4.17 µM
ED50 [5]: 0.5 mg/kg
ED (-1 C) ([1]; O.R. (oral route)): 0.19 mg/kg
ED (-1 C) ([1]; SC.R (sub-cutaneous route)): 0.2 mg/kg
Variations of the body temperature ([2]; os, 0.25 mg/kg, 30 min): -1.4 °C
Variations of the body temperature ([2]; os, 0.25 mg/kg, 60 min): -1.2 °C
Variations of the body temperature ([2]; os, 0.25 mg/kg, 120 min): -0.1 °C
Variations of the body temperature ([2]; os, 0.25 mg/kg, 180 min): -0.1 °C
Variations of the body temperature ([2]; sc, 0.25 mg/kg, 30 min): -1.4 °C
Variations of the body temperature ([2]; sc, 0.25 mg/kg, 60 min): -1.1 °C
Variations of the body temperature ([2]; sc, 0.25 mg/kg, 120 min): -0.1 °C
Variations of the body temperature ([2]; sc, 0.25 mg/kg, 180 min): -0.1 °C

SMILES: CCOC(=O)ON1CCC=C(C=NOC)C1 [Example 6, Methyl ether of 1-ethoxy carbonyloxy-1,2,5,6-tetrahydropyridin-3-carboxaldehyde oxime]
LD50 at 168 h [3]: 125 mg/kg
EC50 [4]: 11.5 µM
ED50 [5]: 0.6 mg/kg
ED (-1 C) ([1]; O.R. (oral route)): 0.26 mg/kg
ED (-1 C) ([1]; SC.R (sub-cutaneous route)): 0.24 mg/kg
Variations of the body temperature ([2]; os, 0.35 mg/kg, 30 min): -1.3 °C
Variations of the body temperature ([2]; os, 0.35 mg/kg, 60 min): -1.1 °C
Variations of the body temperature ([2]; os, 0.35 mg/kg, 120 min): -0.1 °C
Variations of the body temperature ([2]; sc, 0.35 mg/kg, 30 min): -1.4 °C
Variations of the body temperature ([2]; sc, 0.35 mg/kg, 60 min): -1.1 °C
Variations of the body temperature ([2]; sc, 0.35 mg/kg, 120 min): -0.1 °C
Variations of the body temperature ([2]; sc, 0.35 mg/kg, 180 min): +0.1 °C

SMILES: CON=CC1=CCCN(OC(=O)c2ccccc2)C1 [Example 7, Methyl ether of 1-benzoyloxy-1,2,5,6-tetrahydropyridin-3-carboxaldehyde oxime]
LD50 at 168 h [3]: 90 mg/kg
EC50 [4]: > 100 µM
ED50 [5]: 1.5 mg/kg
ED (-1 C) ([1]; O.R. (oral route)): 0.42 mg/kg
ED (-1 C) ([1]; SC.R (sub-cutaneous route)): 0.21 mg/kg
Variations of the body temperature ([2]; os, 0.5 mg/kg, 30 min): -1.1 °C
Variations of the body temperature ([2]; os, 0.5 mg/kg, 60 min): -0.9 °C
Variations of the body temperature ([2]; os, 0.5 mg/kg, 180 min): +0.1 °C
Variations of the body temperature ([2]; sc, 0.25 mg/kg, 30 min): -1.2 °C
Variations of the body temperature ([2]; sc, 0.25 mg/kg, 60 min): -0.9 °C
Variations of the body temperature ([2]; sc, 0.25 mg/kg, 180 min): +0.1 °C

SMILES: CON=CC1=CCCN(OC(=O)Nc2ccc(Cl)cc2)C1 [Example 14, Methyl ether of 1-(4-chlorophenylaminocarbonyloxy)-1,2,5,6-tetrahydropyridin-3-carboxaldehyde oxime]
LD50 at 168 h [3]: > 1000 mg/kg
EC50 [4]: > 100 µM
ED50 [5]: 10 mg/kg
ED (-1 C) ([1]; O.R. (oral route)): 1.8 mg/kg
ED (-1 C) ([1]; SC.R (sub-cutaneous route)): 1.8 mg/kg
Variations of the body temperature ([2]; os, 2.5 mg/kg, 30 min): -1.3 °C
Variations of the body temperature ([2]; os, 2.5 mg/kg, 60 min): -1.5 °C
Variations of the body temperature ([2]; os, 2.5 mg/kg, 120 min): -0.3 °C
Variations of the body temperature ([2]; os, 2.5 mg/kg, 180 min): +0.1 °C
Variations of the body temperature ([2]; sc, 2.5 mg/kg, 30 min): -0.4 °C
Variations of the body temperature ([2]; sc, 2.5 mg/kg, 60 min): -1.5 °C
Variations of the body temperature ([2]; sc, 2.5 mg/kg, 120 min): -1.3 °C
Variations of the body temperature ([2]; sc, 2.5 mg/kg, 180 min): -0.2 °C

SMILES: CON=CC1=CCCN(OC(=O)Nc2ccc(C(C)C)cc2)C1 [Example 15, Methyl ether of 1-(4-isopropylphenylaminocarbonyloxy) 1,2,5,6-tetrahydropyridin-3-carboxaldehyde oxime]
LD50 at 168 h [3]: 350 mg/kg
EC50 [4]: > 100 µM
ED50 [5]: 20 mg/kg
ED (-1 C) ([1]; O.R. (oral route)): 1.9 mg/kg
ED (-1 C) ([1]; SC.R (sub-cutaneous route)): 2.4 mg/kg
Variations of the body temperature ([2]; os, 2. mg/kg, 30 min): -0.8 °C
Variations of the body temperature ([2]; os, 2. mg/kg, 60 min): -1.0 °C
Variations of the body temperature ([2]; os, 2. mg/kg, 120 min): +0. °C.
Variations of the body temperature ([2]; os, 2. mg/kg, 180 min): +0.1 °C
Variations of the body temperature ([2]; sc, 4. mg/kg, 30 min): -0.5 °C
Variations of the body temperature ([2]; sc, 4. mg/kg, 60 min): -1.5 °C
Variations of the body temperature ([2]; sc, 4. mg/kg, 120 min): -1.5 °C
Variations of the body temperature ([2]; sc, 4. mg/kg, 180 min): -0.3 °C

SMILES: CON=CC1=CCCN(OC(=O)Nc2ccc(OC)cc2)C1 [Example 16, Methyl ether of 1-paramethoxyphenylaminocarbonyloxy-1,2,5,6-tetrahydropyridin-3-carboxaldehyde oxime]
LD50 at 168 h [3]: 60 mg/kg
EC50 [4]: > 100 µM
ED50 [5]: 6 mg/kg
ED (-1 C) ([1]; O.R. (oral route)): 0.88 mg/kg
ED (-1 C) ([1]; SC.R (sub-cutaneous route)): 0.78 mg/kg
Variations of the body temperature ([2]; os, 1. mg/kg, 30 min): -1.1 °C
Variations of the body temperature ([2]; os, 1. mg/kg, 60 min): -1.1 °C
Variations of the body temperature ([2]; os, 1. mg/kg, 120 min): -0.1 °C
Variations of the body temperature ([2]; sc, 1. mg/kg, 30 min): -1.2 °C
Variations of the body temperature ([2]; sc, 1. mg/kg, 60 min): -1.5 °C
Variations of the body temperature ([2]; sc, 1. mg/kg, 120 min): -0.3 °C
Variations of the body temperature ([2]; sc, 1. mg/kg, 180 min): +0.1 °C

Solubility in 2N HCl ([6]; 2N HCl): Soluble
Solubility in 2N NaOH ([6]; 2N NaOH): Soluble
Solubility in water ([6]; H2O): Soluble
SMILES: CON=CC1=CCCN(OC)C1 [Example 2, Hydrochloride of the methyl ether of 1-methoxy-1,2,5,6-tetrahydropyridin-3-carboxaldehyde oxime]
